The subject of one assay is B. fragilis NCTC 10581. Description: MIC/MBC broth microdilution, strain A. Type of assay: cell-based. As to conditions: Bacteroides fragilis, NCTC10581, 48 h; for MIC: 37° C., anaerobic; for MBC: 99.9% reduction in viable count after 48 h. On the technique in general: Dilution methods test growth across graded concentrations, often in twofold steps.
The subject of the next assay is B. fragilis NCTC 9343. Description: MIC/MBC broth microdilution, strain B. Type of assay: cell-based. As to conditions: Bacteroides fragilis, NCTC9343, 48 h; for MIC: 37° C., anaerobic; for MBC: 99.9% reduction in viable count after 48 h.
The test system of the next assay is B. fragilis NCTC 9344. Description: MIC/MBC broth microdilution, strain C. As to conditions: for MIC: 37° C., anaerobic; for MBC: 99.9% reduction in viable count after 48 h. The class given is cell-based, Bacteroides fragilis.
In assay [1] the test system is B. fragilis MZ-R ATCC 11295. Kind of assay: MIC/MBC broth microdilution, strain D. The class given is cell-based. As to conditions: Bacteroides fragilis, ATCC11295, 48 h; for MBC: strain D (MZ-R), 99.9% reduction in viable count after 48 h.
A further assay has as its system B. fragilis WS-1. Description: MIC/MBC broth microdilution, strain E. Type of assay: cell-based, Bacteroides fragilis. As to conditions: for MIC: 37° C., anaerobic.
The test system of assay [2] is Clostridium perfringens NCTC 523. Kind of assay: microbe, parasite or virus in culture. Type of assay: cell-based. As to conditions: NCTC523.
The subject of assay [3] is Clostridium perfringens NCTC 8237. Description: microbe, parasite or virus in culture. The class given is cell-based. As to conditions: NCTC8237.
The subject of assay [4] is Clostridium difficile NCIB 10666. Kind of assay: MIC vs. panel of anaerobes. Type of assay: cell-based. As to conditions: Clostridioides difficile, NCIB10666.
Assay [5] deals with Clostridium difficile Cytotoxic 1. Description: MIC vs. panel of anaerobes. The class given is cell-based. As to conditions: Clostridioides difficile.
Assay [6] relates to Campylobacter fetus ss.jejuni ATCC 29428. Description: MIC vs. panel of anaerobes. The class given is cell-based. As to conditions: ATCC29428.
Assay [7] deals with Fusobacterium necrophorum ATCC 11295. Kind of assay: MIC vs. panel of anaerobes. As to conditions: ATCC11295; Fusobacterium necrophorum ATCC 11295; read-out: MIC. The class given is cell-based.
Assay [8] concerns Bacteroides melanogenicus NCTC 9336. Kind of assay: MIC vs. panel of anaerobes. The class given is cell-based. As to conditions: NCTC9336; Bacteroides melanogenicus NCTC 9336; read-out: MIC.
The test system of assay [9] is Peptostreptococcus anaerobicus. Description: MIC vs. panel of anaerobes. Type of assay: cell-based. As to conditions: Peptostreptococcus anaerobicus; read-out: MIC.
Assay [10] concerns Propionebecterium acnes NCTC 737. Description: MIC vs. panel of anaerobes. The class given is cell-based.
Assay [11] has as its system Propionebacterium acnes NCTC 7337. Description: MIC vs. panel of anaerobes. The class given is cell-based.
For a further assay, the system named is B. Fragilis ATCC 23745. As to conditions: for ED (1 log reduction): Bacteroides fragilis, ATCC23745, in Mus musculus, po.
[12] abbreviates: Bacteroides fragilis, NCTC9344, 48 h, 48 h.
[13] abbreviates: Bacteroides fragilis, WS1, 48 h, 48 h.
Setting [14] is: Bacteroides fragilis, NCTC9344, 48 h, read-out: MIC.
Where [15] appears, read: Bacteroides fragilis, NCTC9344, 48 h, read-out: MBC.
The mark [16] stands for this setting: 48 h, read-out: Dose giving 1 log reduction, p.o., after infection and twice daily for 2 days, 1 log (90%) reduction of CFU/ml liver homogenate vs untreated, compound of Example.

SMILES strings stand for the structures. Values after ≈ are worked out from the molar mass of the structure shown. Values joined by “and” are separate entries in the source; they are usually repeats but may differ in a detail not shown here. Equal values may be shown once. Read-outs that look alike come from different tables or passages of the source. A value given as a limit tells only on which side of the number the result lay.

As for `[O-][N+]1=C(c2ccccc2)C2=NCCN2c2cc(N3CCN(c4ccccc4)CC3)ccc21` [Example 8, 1,2-Dihydro-4-phenyl-8-(4-phenylpiperazinyl)imidazo[1,2-a]quinoxaline 5-oxide], the MIC is 1.5 µg/mL (≈ 3.54 µM) in the assay with B. fragilis NCTC 10581 (read-out: MIC); 1.5 µg/mL (≈ 3.54 µM) in the assay with B. fragilis NCTC 9343 (read-out: MIC); less than 0.8 µg/mL with B. fragilis NCTC 9344 (setting [12]); less than 0.8 µg/mL in assay [1]; 3.1 µg/mL (≈ 7.32 µM) in the assay with B. fragilis WS-1 (setting [13]); 1.5 µg/mL (≈ 3.54 µM) in assay [2]. For the same molecule, the MIC was 3.1 µg/mL (≈ 7.32 µM) in assay [3]; less than 0.8 µg/mL in assay [4] (Clostridium difficile NCIB 10666, read-out: MIC); less than 0.8 µg/mL in [5]; more than 100 µg/mL in assay [6]; 3.1 µg/mL (≈ 7.32 µM) in assay [7]; more than 100 µg/mL in assay [8]. The MIC in assay [9], in assay [10] and in assay [11] was more than 100 µg/mL throughout.

On to `[O-][N+]1=C(c2ccccc2)C2=NCCN2c2cc(F)c(F)cc21` [Example 2, 1,2-Dihydro-7,8-difluoro-4-phenylimidazo[1,2-a]quinoxaline 5-oxide], for which the MIC was 0.6 µg/mL (≈ 2 µM) with B. fragilis NCTC 10581 (read-out: MIC); 0.15 µg/mL (≈ 0.501 µM) in the assay on B. fragilis NCTC 9343 (read-out: MIC); 0.6 µg/mL (≈ 2 µM) in the assay on B. fragilis NCTC 9344 (setting [14]); 0.08 µg/mL (≈ 0.267 µM) in assay [1]; 0.6 µg/mL (≈ 2 µM) in the assay on B. fragilis WS-1 (Bacteroides fragilis, WS1, 48 h, read-out: MIC); 6.2 µg/mL (≈ 20.7 µM) in assay [2]. Besides, the MIC in [3] was 6.2 µg/mL (≈ 20.7 µM); in assay [4], less than 0.8 µg/mL; in assay [5], 6.2 µg/mL (≈ 20.7 µM); in [6] it was 12.5 µg/mL (≈ 41.8 µM); in [7], 3.1 µg/mL (≈ 10.4 µM); in assay [8], 6.2 µg/mL (≈ 20.7 µM). Besides, the MIC in [9] came out at 12.5 µg/mL (≈ 41.8 µM); in [10] it was 25 µg/mL (≈ 83.5 µM); in assay [11] it was 25 µg/mL (≈ 83.5 µM). For the same molecule, the MBC (usually the lowest tested concentration that kills the bacteria rather than only halting them) with B. fragilis NCTC 10581 was found to be 0.6 µg/mL (≈ 2 µM); in the assay on B. fragilis NCTC 9343 it was 0.15 µg/mL (≈ 0.501 µM); with B. fragilis NCTC 9344 (setting [15]), 0.6 µg/mL (≈ 2 µM); in [1] it was 0.15 µg/mL (≈ 0.501 µM); in the assay with B. fragilis WS-1 (Bacteroides fragilis, WS1, 48 h, 99.9% reduction in viable count after 48 h), 0.6 µg/mL (≈ 2 µM). Moreover, the ED (1 log reduction) with B. Fragilis ATCC 23745 (setting [16]) was less than 40 mg/kg.

Regarding `Cc1ncc([N+](=O)[O-])n1CCO` [Metronidazole, reference compound], the MIC with B. fragilis NCTC 10581 (read-out: MIC) was 0.6 µg/mL (≈ 3.51 µM); with B. fragilis NCTC 10581 (48 h) it was less than 0.8 µg/mL; in the assay on B. fragilis NCTC 9343 (read-out: MIC), 0.6 µg/mL (≈ 3.51 µM); against B. fragilis NCTC 9343 (48 h), 0.8 µg/mL (≈ 4.67 µM); in the assay with B. fragilis NCTC 9344 (48 h), 0.8 µg/mL (≈ 4.67 µM); in the assay on B. fragilis NCTC 9344 (setting [14]) it was 0.6 µg/mL (≈ 3.51 µM). For the same molecule, the MIC in the assay on B. fragilis NCTC 9344 (setting [12]) is less than 0.8 µg/mL; in assay [1], 3.1 µg/mL (≈ 18.1 µM); in the assay with B. fragilis WS-1 (48 h), < 0.8 µg/mL and 0.8 µg/mL; against B. fragilis WS-1 (setting [13]), 1.5 µg/mL (≈ 8.76 µM); in [2], less than 0.8 µg/mL; in [3] it was 1.5 µg/mL (≈ 8.76 µM). The MIC in assay [5] was less than 0.8 µg/mL; in assay [6] it was more than 100 µg/mL; in [7], 6.2 µg/mL (≈ 36.2 µM); in [8] it was more than 100 µg/mL; in [9] it was more than 100 µg/mL; in assay [10] it was more than 100 µg/mL. Also, the MIC in assay [11] was more than 100 µg/mL. Besides, the minimum bactericidal concentration (MBC) in the assay on B. fragilis NCTC 10581 was 0.8 µg/mL (≈ 4.67 µM); in the assay on B. fragilis NCTC 9344, 0.8 µg/mL and < 0.8 µg/mL; in the assay with B. fragilis NCTC 9344 (setting [15]), 0.6 µg/mL (≈ 3.51 µM). Besides, the “reduction in B. fragilis” value with B. Fragilis ATCC 23745 (40 mg/kg (p.o.)) is 3-3.5 log10. In the assay with B. Fragilis ATCC 23745 (read-out: Dose giving 1 log reduction, Metronidazole, p.o., positive control beside the compound of the same line), the ED (1 log reduction) is 1.64 mg/kg.

As for `[O-][N+]1=C(c2ccccc2)C2=NCCN2c2nc(N3CCN(Cc4ccccc4)CC3)ccc21` [Example 17, 1,2-Dihydro-4-phenyl-8-(4-phenylmethylpiperazinyl)imidazo[1,2-a]pyrido[3,2-e]pyrazine 5-oxide], in the assay with B. Fragilis ATCC 23745 (setting [16]), the ED (1 log reduction) was found to be 3.59 mg/kg.

`CN1CCN(c2ccc3c(n2)N2CCN=C2C(c2ccccc2)=[N+]3[O-])CC1` [Example 9, 1,2-Dihydro-8-(4-methylpiperazinyl)-4-phenylimidazo[1,2-a]pyrido[3,2-e]pyrazine 5-oxide]: the minimum bactericidal concentration (MBC) (against B. fragilis NCTC 10581; against B. fragilis NCTC 9343; in the assay on B. fragilis NCTC 9344 (setting [15]); in assay [1]) was 0.8 µg/mL (≈ 2.21 µM) in each case. For the same molecule, the MIC (with B. fragilis NCTC 10581 (48 h); in the assay with B. fragilis NCTC 9343 (48 h); against B. fragilis NCTC 9344 (setting [12]); in assay [1]) was 0.8 µg/mL (≈ 2.21 µM) each time. Further, the ED (1 log reduction) in the assay on B. Fragilis ATCC 23745 (setting [16]) amounted to 4.48 mg/kg.

The record behind these values is US4696928A, “Substituted dihydroimidazo[1,2-a]quinoxalines” (G. D. Searle & Co., priority 1985, dated 1987).
